Assay results taken from US20060105967A1, “Flavone derivatives as TNFalpha inhibitors or antagonists” (Advanced Gene Technology, Corp., priority 2004, published 2006).

Experiments:
[1] = tested on: rats with collagen-induced arthritis; experiment: Anti-inflammatory effect on rats with collagen-induced arthritis; format: in vivo, rat; details: for decreased percentage of edema: IP
Text: SD rats of SPF grade were supplied from BioLasco. Prior to performing the study, the animals were accommodated for 4 days after being received. Weighing, blood sampling, measuring the paw volumes and other related records for each animal were established. The rats were immunized and boosted with bovine collagen II-EFA (Incomplete Freund's Adjuvant, from Sigma) to induce arthritis (CIA). The CIA rats were grouped into 6 groups and daily injected with the drug candidates (myricitrin and quercetin-3-D-glucoside respectively). Dexamethasone (0.2 mg) was used as a positive control and 5% ethanol as a negative control. Treatment period was 7 days. Body weight and paw volumes were measured and blood sampling were collected at day 0, 3, 6, 10 and 14.
Six days after the final dosing, all the animals were sacrificed. The affected hind limbs were removed for histological assessment. The parameters of body weights and paw volumes were measured and compared for before, during and after treatment with drug candidates.

[2] = target: T1, TNFα (Homo sapiens, UniProt P01375); experiment: L929 cell proliferation/cytotoxicity assay, TNFα activity assay; format: cell-based
T1 construct: purchased
T1 sequence (P01375 77-233 limits assumed, species assumed): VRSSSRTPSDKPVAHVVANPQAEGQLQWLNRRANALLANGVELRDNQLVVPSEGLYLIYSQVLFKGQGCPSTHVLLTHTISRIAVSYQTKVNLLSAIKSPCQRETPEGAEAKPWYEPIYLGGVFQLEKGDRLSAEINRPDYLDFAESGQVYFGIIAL
Method: (§1) L929 cells were cultured in Eagle's Minimal Essential Medium (MEM) containing 10% equine serum, 1% P/S and 1% non-essential amino acid. Confluent L929 cells were washed with 2 ml PBS (phosphate-buffered saline) solution and then trypsinized with 1 ml 1×trypsin, followed by resuspending in complete medium. Two hundred microliter of cell suspension was aspirated for cell density counting. […]. Add 100 μl of cell suspension to each well in 96-well flat-bottomed microtitre plates and incubated for 24 hrs in 5% CO2 atmosphere at 37° C. incubator.
Crude herbal extracts were resuspended in 1×PBS and sterilized with 0.22 μm filters. Varying concentrations of herbal extract were incubated for 1 hr with equal volume of commercial TNFα 0.2 ng/ml. Before the end of the 1 hr pre-incubation, removing the medium from the 24 hr incubated 96-well plate, and added a 50 μl fresh medium containing 4 μg/ml of Actinomycin D into the 96-well plate. Transferred the 50 μl of pre-incubated mixture of herbal extraction and TNFα to the 96-well plate with the medium containing Act D to give the final concentration of Act D (2 μg/ml), TNFα(0.1 ng/ml). […]
The same samples as those for TNFα activity assay were added to the 96-well plate with the medium containing Act D to give the final concentration of Act D 2 μg/ml. […] Read with ELISA (enzyme-linked immunosorbent assay) reader at O.D (optical density) 490/630 nm. […]

[3] = tested on: L929 cells; experiment: Cytotoxicity in L929 cells (XTT); format: cell-based; details: Act D 2 μg/ml, 24 hrs
Method: as §1
The same samples as those for TNFα activity assay were added to the 96-well plate with the medium containing Act D to give the final concentration of Act D 2 μg/ml. Mixed well by gently shaking and then incubated for 24 hrs in 5% CO2 atmosphere at 37° C. incubator. 50 μl XTT mixture (XTT−1: XTT−2=50:1) was added to each well, and incubated in a CO2 incubator for 4 hrs. Read with ELISA (enzyme-linked immunosorbent assay) reader at O.D (optical density) 490/630 nm. […]. Quercitrin and Myricitrin Identification (1) Thin-Layer Chromatography

[4] = CIA rats, 3rd day after treatment stopped (T4)
[5] = CIA rats, 7th day after treatment stopped (T5)

SMILES | decreased percentage of edema [1, 4] [%] | decreased percentage of edema [1, 5] [%] | IC50 [2] [µM] | cell cytotoxicity [3] | histopathological changes of joint ([1]; CIA rats treated (IP), hind limbs removed six days after final dosing) | decreased percentage of edema volumes for hind paws ([1]; CIA rats, daily injection (IP), treatment period / day 6 of treatment (T3), vs non-treatment paw volume) [%]
C[C@@H]1C[C@H]2[C@@H]3CCC4=CC(=O)C=C[C@]4(C)[C@@]3(F)[C@@H](O)C[C@]2(C)[C@@]1(O)C(=O)CO [dexamethasone, reference compound] | 28.21 | 29.97 |  |  |  | 
C[C@@H]1O[C@@H](Oc2c(-c3ccc(O)c(O)c3)oc3cc(O)cc(O)c3c2=O)[C@H](O)[C@H](O)[C@H]1O [quercitrin] |  |  | 161 | without cell cytotoxicity |  | 
O=c1c(O[C@@H]2O[C@H](CO)[C@@H](O)[C@H](O)[C@H]2O)c(-c2ccc(O)c(O)c2)oc2cc(O)cc(O)c12 [quercetin-3-D-glucoside] | 24.93 | 80.47 | 95.7 |  | proliferation of synovial ling cell and infiltration of lymphocytes was shown | 8.59
